From patent publication US9321756B2, “Azole compounds as PIM inhibitors” (priority 2011, dated 2016)
Like-named read-outs stand apart in the source and are kept apart here.

Legend:
Type in all cases: biochemical
[1] = target: full length recombinant Pim-1 (Homo sapiens (Human), UniProt P11309); assay: Pim enzyme assay (HTRF, phosphorylation of biotinylated-BAD (S112) peptide), Pim-1
[2] = target: full length recombinant Pim-3 (Homo sapiens (Human), UniProt Q86V86); assay: Pim enzyme assay (HTRF, phosphorylation of biotinylated-BAD (S112) peptide), Pim-3; details: Pim-3 enzyme assay; read-out: Pim3 IC50
Description: Pim-3 was purchased from Millipore (UK).
The phosphorylation of biotinylated-BAD (S112) peptide by full length recombinant Pim-1, Pim-2, or Pim-3 protein was detected with streptavidin:Allophycocyanin (APC) conjugate and a europium (Eu) labeled antibody directed against phosphorylated-BAD (S112). […] The fluorescence is directly proportional to the amount of phosphorylated BAD peptide present in the reaction.
A reference compound was included on each assay plate in order to validate that plate; on one plate of every assay run, two additional reference compounds were included.
The final buffer conditions were as follows: 60 mM Hepes, pH 7.0, 0.05% BSA, 2 mM DTT. Incubations were carried out at RT (22° C.) for 2 h for Pim-1, 1 h and 30 min for Pim-3, and 45 min for Pim-2. The reaction was then stopped by the addition of 3 mM EDTA, and fluorescence was measured by an HTRF® Rubystar microplate reader. For each plate, percent of control (POC) values were calculated for each well. Values for the IC50 IP were estimated using a standard 4-parameter logistic model.

[3] = target: full length recombinant Pim-2 (Homo sapiens (Human), UniProt Q9P1W9); assay: Pim enzyme assay (HTRF, phosphorylation of biotinylated-BAD (S112) peptide), Pim-2; details: read-out: Pim2_IC50
Chain of full length recombinant Pim-2 (Q9P1W9 whole entry): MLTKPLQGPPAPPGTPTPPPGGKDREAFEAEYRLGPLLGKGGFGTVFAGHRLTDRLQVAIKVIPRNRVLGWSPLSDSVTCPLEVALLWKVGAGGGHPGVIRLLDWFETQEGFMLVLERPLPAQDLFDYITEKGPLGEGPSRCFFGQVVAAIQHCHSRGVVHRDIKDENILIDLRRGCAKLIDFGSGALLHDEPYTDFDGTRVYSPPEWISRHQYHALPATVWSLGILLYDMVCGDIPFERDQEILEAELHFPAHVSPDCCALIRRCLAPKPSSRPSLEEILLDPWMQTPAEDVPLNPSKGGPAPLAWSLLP

[4] = Pim-1 enzyme assay, read-out: Pim_1_IC50
[5] = HTRF, 10-point curve, high dose 1 uM, 2 h at RT, read-out: Pim_1_IC50
[6] = HTRF, 10-point curve, high dose 1 uM, 45 min at RT

Chain of full length recombinant Pim-1 (P11309 whole entry): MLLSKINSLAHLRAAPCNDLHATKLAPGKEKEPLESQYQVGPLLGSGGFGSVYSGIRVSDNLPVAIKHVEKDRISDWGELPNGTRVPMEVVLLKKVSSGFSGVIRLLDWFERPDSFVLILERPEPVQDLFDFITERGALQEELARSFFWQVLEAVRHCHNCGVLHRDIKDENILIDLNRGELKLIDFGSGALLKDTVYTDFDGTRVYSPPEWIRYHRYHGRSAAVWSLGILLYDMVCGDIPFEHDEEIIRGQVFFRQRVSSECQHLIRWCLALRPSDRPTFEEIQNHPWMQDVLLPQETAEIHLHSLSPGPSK

SMILES	IC50 [1, 4]	IC50 ([3]; Pim-2 enzyme assay)	IC50 [1, 5]	IC50 [3, 6]	also measured
COc1cncc(-c2c[nH]c3ccc(-c4nnc(N)o4)nc23)c1 [Example 10, 5-(3-(5-methoxypyridin-3-yl)-1H-pyrrolo[3,2-b]pyridin-5-yl)-1,3,4-oxadiazol-2-amine]	1130 nM	570 nM			IC50 [2]: 642 nM
Cc1nc(-c2c[nH]c3ccc(-c4nnc(N)s4)cc23)ccc1F [Example 191, 5-(3-(5-fluoro-6-methyl-2-pyridinyl)-1H-indol-5-yl)-1,3,4-thiadiazol-2-amine]					IC50 [2]: 144 nM
COc1nc(-c2c[nH]c3ccc(-c4nnc(NC(C)C)o4)cc23)nc(C)c1F [Example 260, 5-(3-(5-fluoro-4-methoxy-6-methyl-2-pyrimidinyl)-1H-indol-5-yl)-N-(1-methylethyl)-1,3,4-oxadiazol-2-amine]	159 nM	106 nM			
Cc1cc(N)nc(-c2c[nH]c3ccc(-c4nnc(NC(C)(C)C)o4)cc23)n1 [Example 272, 2-(5-(5-(tert-butylamino)-1,3-4-oxadiazol-2-yl)-1H-indol-3-yl)-6-methyl-4-pyrimidinamine]	105 nM	351 nM			
Cc1cncc(-c2c[nH]c3ccc(-c4nnc(-c5ccccc5)s4)cc23)n1 [Example 274, 3-(6-methyl-2-pyrazinyl)-5-(5-phenyl-1,3,4-thiadiazol-2-yl)-1H-indole]		> 1000 nM			IC50 [1]: > 1000 nM
CC(C)Nc1nnc(-c2ccc3[nH]cc(-c4ncc(C(N)=O)s4)c3c2)o1 [Example 276, 2-(5-(5-((1-methylethyl)amino)-1,3,4-oxadiazol-2-yl)-1H-indol-3-yl)-1,3-thiazole-5-carboxamide]			111 nM	315 nM	
CC(C)(C)Nc1nnc(-c2ccc3[nH]cc(-c4ncc(C(N)=O)s4)c3c2)o1 [Example 277, 2-(5-(5-(tert-butylamino)-1,3,4-oxadiazol-2-yl)-1H-indol-3-yl)-1,3-thiazole-5-carboxamide]			58.2 nM	393 nM	
CNC(=O)c1ccnc(-c2c[nH]c3ccc(-c4nnc(NC(C)C)o4)cc23)n1 [Example 282, N-methyl-2-(5-(5-((1-methylethyl)amino)-1,3,4-oxadiazol-2-yl)-1H-indol-3-yl)-4-pyrimidinecarboxamide 2,2,2-trifluoroacetate]			509 nM	652 nM	
CC(C)Nc1nnc(-c2ccc3[nH]cc(-c4nccc(C(=O)NC5CC5)n4)c3c2)o1 [Example 283, N-cyclopropyl-2-(5-(5-((1-methylethyl)amino)-1,3,4-oxadiazol-2-yl)-1H-indol-3-yl)-4-pyrimidinecarboxamide 2,2,2-trifluoroacetate]			517 nM	453 nM	
CS(=O)(=O)c1ccc(-c2c[nH]c3ccc(-c4nnc(N)o4)cc23)nc1 [Example 284, 5-(3-(5-(methylsulfonyl)-2-pyridinyl)-1H-indol-5-yl)-1,3,4-oxadiazol-2-amine 2,2,2-trifluoroacetate]			515 nM		IC50 [3]: 555 nM
CNC(=O)c1cccc(-c2c[nH]c3ccc(-c4nnc(NC(C)C)o4)cc23)n1 [Example 285, 6-(5-(5-(isopropylamino)-1,3,4-oxadiazol-2-yl)-1H-indol-3-yl)-N-methylpicolinamide]			401 nM	760 nM	
CNC(=O)c1cncc(-c2c[nH]c3ccc(-c4nnc(NC(C)C)o4)cc23)c1 [Example 286, 5-(5-(5-(isopropylamino)-1,3,4-oxadiazol-2-yl)-1H-indol-3-yl)-N-methylnicotinamide]			713 nM	843 nM	
CNC(=O)c1ccc(F)c(-c2c[nH]c3ccc(-c4nnc(NC(C)C)o4)cc23)c1 [Example 289, 4-fluoro-3-(5-(5-(isopropylamino)-1,3,4-oxadiazol-2-yl)-1H-indol-3-yl)-N-methylbenzamide]				301 nM	IC50 [1]: 233 nM
CC(C)Nc1nnc(-c2ccc3[nH]cc(-c4cccc(C(=O)N(C)C)n4)c3c2)o1 [Example 292, N,N-dimethyl-6-(5-(5-((1-methylethyl)amino)-1,3,4-oxadiazol-2-yl)-1H-indol-3-yl)-2-pyridinecarboxamide]			496 nM	541 nM	

More lines, main results first:

IC50 [1, 4]	IC50 ([3]; Pim-2 enzyme assay)	IC50 [1, 5]	IC50 [3, 6]	SMILES	also measured
161 nM	602 nM			C[C@H]1CCCCN1c1nc(-c2c[nH]c3ccc(-c4nnc(N)s4)cc23)cs1 (stereo in doubt) [Example 184, 5-(3-(2-(2-methyl-1-piperidinyl)-1,3-thiazol-4-yl)-1H-indol-5-yl)-1,3,4-thiadiazol-2-amine]	IC50 [2]: 94.7 nM
28.8 nM	42.5 nM			Nc1nnc(-c2ccc3[nH]cc(-c4cncc(-c5ccc(F)cc5)n4)c3c2)o1 [Example 7, 5-(3-(6-(4-fluorophenyl)pyrazin-2-yl)-1H-indol-5-yl)-1,3,4-oxadiazol-2-amine]	IC50 [2]: 19.7 nM
	70.8 nM			CC(C)Nc1nnc(-c2ccc3[nH]cc(-c4nccc(C(N)=O)n4)c3c2)o1 [Example 261, 2-(5-(5-((1-methylethyl)amino)-1,3,4-oxadiazol-2-yl)-1H-indol-3-yl)-4-pyrimidinecarboxamide]	IC50 [1]: 105 nM
2.53 nM	2.77 nM			CC(C)Nc1nnc(-c2ccc3[nH]cc(-c4ncc(F)c(C5CC5)n4)c3c2)o1 [Example 262, 5-(3-(4-cyclopropyl-5-fluoro-2-pyrimidinyl)-1H-indol-5-yl)-N-(1-methylethyl)-1,3,4-oxadiazol-2-amine]	
241 nM	383 nM			CC(C)Nc1nnc(-c2ccc3[nH]cc(-c4nc(C5CC5)n[nH]4)c3c2)o1 [Example 263, 5-(3-(3-cyclopropyl-1H-1,2,4-triazol-5-yl)-1H-indol-5-yl)-N-(1-methylethyl)-1,3,4-oxadiazol-2-amine]	
	51 nM			CC(C)Cc1nnc(-c2ccc3[nH]cc(-c4cncc(C5CC5)n4)c3c2)o1 [Example 265, 3-(6-cyclopropyl-2-pyrazinyl)-5-(5-(2-methylpropyl)-1,3,4-oxadiazol-2-yl)-1H-indole]	IC50 [1]: 28.6 nM
364 nM	450 nM			Fc1cccc(Nc2nnc(-c3ccc4[nH]cc(-c5nccc(C6CC6)n5)c4c3)o2)c1 [Example 269, 5-(3-(4-cyclopropyl-2-pyrimidinyl)-1H-indol-5-yl)-N-(3-fluorophenyl)-1,3,4-oxadiazol-2-amine]	
8.77 nM	34.8 nM			Cc1ccnc(-c2c[nH]c3ccc(-c4nnc(NC(C)(C)C)o4)cc23)n1 [Example 270, N-tert-butyl-5-(3-(4-methyl-2-pyrimidinyl)-1H-indol-5-yl)-1,3,4-oxadiazol-2-amine]	
11.8 nM	28.5 nM			CC(C)(C)Nc1nnc(-c2ccc3[nH]cc(-c4nccc(C(N)=O)n4)c3c2)o1 [Example 273, 2-(5-(5-(tert-butylamino)-1,3-4-oxadiazol-2-yl)-1H-indol-3-yl)-4-pyrimidinecarboxamide]	
		259 nM	705 nM	CC(C)Nc1nnc(-c2ccc3[nH]cc(-c4ncc(C(=O)NC5CC5)s4)c3c2)o1 [Example 275, N-cyclopropyl-2-(5-(5-((1-methylethyl)amino)-1,3,4-oxadiazol-2-yl)-1H-indol-3-yl)-1,3-thiazole-5-carboxamide]	
		186 nM	408 nM	CC(C)Nc1nnc(-c2ccc3[nH]cc(-c4nc(C(=O)NC5CC5)cs4)c3c2)o1 [Example 278, N-cyclopropyl-2-(5-(5-((1-methylethyl)amino)-1,3,4-oxadiazol-2-yl)-1H-indol-3-yl)-1,3-thiazole-4-carboxamide]	
			238 nM	CC(C)Nc1nnc(-c2ccc3[nH]cc(-c4ccc(C(N)=O)cc4F)c3c2)o1 [Example 290, 3-fluoro-4-(5-(5-(isopropylamino)-1,3,4-oxadiazol-2-yl)-1H-indol-3-yl)benzamide]	IC50 [1]: 69.6 nM
		> 1000 nM	> 1000 nM	CC(C)Nc1nnc(-c2ccc3[nH]cc(-c4cncc(C(=O)N(C)C)c4)c3c2)o1 [Example 296, N,N-dimethyl-5-(5-(5-((1-methylethyl)amino)-1,3,4-oxadiazol-2-yl)-1H-indol-3-yl)-3-pyridinecarboxamide]	
		39.2 nM	73.8 nM	COc1nccc(-c2c[nH]c3ccc(-c4nnc(NC(C)C)o4)cc23)n1 [Example 297, 5-(3-(2-methoxy-4-pyrimidinyl)-1H-indol-5-yl)-N-(1-methylethyl)-1,3,4-oxadiazol-2-amine]	
		15.9 nM	24.4 nM	COc1nc(-c2c[nH]c3ccc(-c4nnc(NC(C)C)o4)cc23)cc(=O)[nH]1 [Example 298, 2-methoxy-6-(5-(5-((1-methylethyl)amino)-1,3,4-oxadiazol-2-yl)-1H-indol-3-yl)-4(3H)-pyrimidinone]	
		767 nM	299 nM	CC(C)Nc1nnc(-c2ccc3[nH]cc(-c4cncc(C(=O)NC5CC5)c4)c3c2)o1 [Example 299, N-cyclopropyl-5-(5-(5-((1-methylethyl)amino)-1,3,4-oxadiazol-2-yl)-1H-indol-3-yl)-3-pyridinecarboxamide]	
		70 nM	115 nM	CC(C)Nc1nnc(-c2ccc3[nH]cc(NC(=O)c4ccncc4)c3c2)o1 [Example 304, N-(5-(5-((1-methylethyl)amino)-1,3,4-oxadiazol-2-yl)-1H-indol-3-yl)-4-pyridinecarboxamide]	
